From paper PMC10257182, “Discovery of senolytics using machine learning” (Nature Communications, 2023)
Read-outs that look alike come from different tables or passages of the source.

Key:
Format in all cases: cell-based, human
[1] = tested on: senescent A549 cells (etoposide-induced); test: Nuclei count senolytic assay, therapy-induced senescence (TIS) model, senescent cells; settings: Homo sapiens, A549, Senescent cells, mean, read-out: Mean % Cell Survival
Procedure, shortened: (§1)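 Etoposide 100 μM, 48 h, + 3 d standard media → senescent A549; untreated A549 = controls. 24 h post-seeding, cpds 10 nM–10 μM final, 10-pt […], 72 h, n=3. Fix formaldehyde, permeabilise Triton-X100, Hoechst 2 μg/ml, image, count nuclei.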

[2] = tested on: non-senescent control IMR90 ER:RAS cells; test: Nuclei count (Hoechst, high content imaging) senolytic assay, OIS model, non-senescent control cells; settings: Homo sapiens
Procedure, shortened: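 IMR90 ER:RAS (p14), ±4-OHT 100 nM; cpd 10 nM–10 μM, 10-pt […], 72 h, n=3. Fix formaldehyde, Triton X-100, Hoechst 2 μg/ml final. Readout: imaged nuclei count vs untreated; ouabain positive control.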

[3] = tested on: non-senescent control A549 cells; test: Nuclei count senolytic assay, TIS model, non-senescent control cells; settings: Homo sapiens, A549, Control cells, mean, read-out: Mean % Cell Survival
Procedure, shortened: as §1

## O=c1cc(-c2ccc(O)cc2)oc2cc(O)c(O)c(O)c12 [Scutellarein, scutellarein]
[1]; log (dose) [M] -5
  viability at 10 µM: 108%
[1]; log (dose) [M] -5.33
  viability at 4.68 µM: 104%
[1]; log (dose) [M] -5.66
  viability at 2.19 µM: 105%
[1]; log (dose) [M] -6
  viability at 1 µM: 135%
[1]; log (dose) [M] -6.33
  viability at 0.468 µM: 106%
[1]; log (dose) [M] -6.66
  viability at 0.219 µM: 103%
[1]; log (dose) [M] -7
  viability at 0.1 µM: 81.8%
[1]; log (dose) [M] -7.33
  viability at 0.0468 µM: 88.6%
[1]; log (dose) [M] -7.66
  viability at 0.0219 µM: 97.4%
[1]; log (dose) [M] -8
  viability at 0.01 µM: 91.3%
[2]; IMR-90, 72 h, Control, log (dose) [M] -5, 72 h, mean n=3 (Fig 3C), read-out: Mean % Cell Survival
  viability at 10 µM: 97.3%
[2]; IMR-90, 72 h, Control, log (dose) [M] -5.33, 72 h, mean n=3 (Fig 3C), read-out: Mean % Cell Survival
  viability at 4.677 µM: 95.7%
[2]; IMR-90, 72 h, Control, log (dose) [M] -5.66, 72 h, mean n=3 (Fig 3C), read-out: Mean % Cell Survival
  viability at 2.188 µM: 88.9%
[2]; IMR-90, 72 h, Control, log (dose) [M] -6, 72 h, mean n=3 (Fig 3C), read-out: Mean % Cell Survival
  viability at 1 µM: 88.2%
[2]; IMR-90, 72 h, Control, log (dose) [M] -6.33, 72 h, mean n=3 (Fig 3C), read-out: Mean % Cell Survival
  viability at 0.4677 µM: 95.4%
[2]; IMR-90, 72 h, Control, log (dose) [M] -6.66, 72 h, mean n=3 (Fig 3C), read-out: Mean % Cell Survival
  viability at 0.2188 µM: 109%
[2]; IMR-90, 72 h, Control, log (dose) [M] -7, 72 h, mean n=3 (Fig 3C), read-out: Mean % Cell Survival
  viability at 0.1 µM: 118%
[2]; IMR-90, 72 h, Control, log (dose) [M] -7.33, 72 h, mean n=3 (Fig 3C), read-out: Mean % Cell Survival
  viability at 0.04677 µM: 130%
[2]; IMR-90, 72 h, Control, log (dose) [M] -7.66, 72 h, mean n=3 (Fig 3C), read-out: Mean % Cell Survival
  viability at 0.02188 µM: 117%
[2]; IMR-90, 72 h, Control, log (dose) [M] -8, 72 h, mean n=3 (Fig 3C), read-out: Mean % Cell Survival
  viability at 0.01 µM: 121%
[2]; IMR-90, Control, log (dose) [M] -5, read-out: % Cell Survival
  viability at 10 µM: 112%
[2]; IMR-90, Control, log (dose) [M] -5.33, read-out: % Cell Survival
  viability at 4.68 µM: 101%
[2]; IMR-90, Control, log (dose) [M] -5.66, read-out: % Cell Survival
  viability at 2.19 µM: 102%
[2]; IMR-90, Control, log (dose) [M] -6, read-out: % Cell Survival
  viability at 1 µM: 108%
[2]; IMR-90, Control, log (dose) [M] -6.33, read-out: % Cell Survival
  viability at 0.468 µM: 101%
[2]; IMR-90, Control, log (dose) [M] -6.66, read-out: % Cell Survival
  viability at 0.219 µM: 107%
[2]; IMR-90, Control, log (dose) [M] -7, read-out: % Cell Survival
  viability at 0.1 µM: 107%
[2]; IMR-90, Control, log (dose) [M] -7.33, read-out: % Cell Survival
  viability at 0.04677 µM: 102%
[2]; IMR-90, Control, log (dose) [M] -7.66, read-out: % Cell Survival
  viability at 0.0219 µM: 99.8%
[2]; IMR-90, Control, log (dose) [M] -8, read-out: % Cell Survival
  viability at 0.01 µM: 107%
[3]; log (dose) [M] -5
  viability at 10 µM: 111%
[3]; log (dose) [M] -5.33
  viability at 4.68 µM: 112%
[3]; log (dose) [M] -5.66
  viability at 2.19 µM: 105%
[3]; log (dose) [M] -6
  viability at 1 µM: 108%
[3]; log (dose) [M] -6.33
  viability at 0.468 µM: 102%
[3]; log (dose) [M] -6.66
  viability at 0.219 µM: 109%
[3]; log (dose) [M] -7
  viability at 0.1 µM: 102%
[3]; log (dose) [M] -7.33
  viability at 0.0468 µM: 99.3%
[3]; log (dose) [M] -7.66
  viability at 0.0219 µM: 98.3%
[3]; log (dose) [M] -8
  viability at 0.01 µM: 99.7%
